Data as given in PubChem BioAssay (NCI).
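The compound was tested at five concentrations on cells cultured in 96-well plates, with a 48-hour exposure period. TGI is the concentration that stops growth completely.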

How the values were obtained:
Assay in all cases: DTP human tumour cell line panel, 48 h
[1] = tested on: U251 CNS
[2] = tested on: SK-MEL-28 melanoma
[3] = tested on: A498 renal
[4] = tested on: UO-31 renal
[5] = tested on: DU-145 prostate
[6] = tested on: SN12C renal
[7] = tested on: SF-268 CNS
[8] = tested on: PC-3 prostate
[9] = tested on: NCI-H23 lung
[10] = tested on: MDA-MB-231 breast
[11] = tested on: HCT-15 colon
[12] = tested on: ACHN renal
[13] = tested on: IGROV1 ovarian
[14] = tested on: UACC-257 melanoma
[15] = tested on: OVCAR-8 ovarian
[16] = tested on: SF-295 CNS
[17] = tested on: UACC-62 melanoma
[18] = tested on: NCI-H522 lung
[19] = tested on: A549 NSCLC
[20] = tested on: HCC-2998 colon
[21] = tested on: SF-539 CNS
[22] = tested on: KM12 colon
[23] = tested on: EKVX NSCLC
[24] = tested on: 786-0 renal
[25] = tested on: SK-MEL-2 melanoma
[26] = tested on: SK-OV-3 ovarian
[27] = tested on: NCI-H460 lung
[28] = tested on: K-562 leukemia
[29] = tested on: CCRF-CEM leukemia
[30] = tested on: M14 melanoma
[31] = tested on: MDA-MB-435
[32] = tested on: RXF 393 renal
[33] = tested on: SW-620 colon
[34] = tested on: T-47D breast
[35] = tested on: SR leukemia
[36] = tested on: SNB-19 CNS
[37] = tested on: SK-MEL-5 melanoma
[38] = tested on: NCI/ADR-RES ovarian
[39] = tested on: HCT-116 colon
[40] = tested on: NCI-H226 lung
[41] = tested on: COLO 205 colon
[42] = tested on: BT-549 breast
[43] = tested on: HOP-62 NSCLC
[44] = tested on: TK-10 renal
[45] = tested on: HL-60(TB) leukemia
[46] = tested on: OVCAR-4 ovarian
[47] = tested on: HT29 colon
[48] = tested on: OVCAR-5 ovarian
[49] = tested on: SNB-75 CNS
[50] = tested on: OVCAR-3 ovarian
[51] = tested on: HS 578T breast
[52] = tested on: RPMI-8226 leukemia
[53] = tested on: MOLT-4 leukemia
[54] = tested on: HOP-92 NSCLC
[55] = tested on: CAKI-1 renal
[56] = tested on: MCF7 breast
[57] = tested on: MALME-3M melanoma
[58] = tested on: MDA-N
[59] = tested on: LOX IMVI melanoma

Cc1oc2nc(N(C)C)n3cnnc3c2c1C
TGI [1]: > 100 µM | TGI [2]: > 100 µM | TGI [3]: > 100 µM | TGI [4]: > 100 µM | TGI [5]: > 100 µM | TGI [6]: > 100 µM | TGI [7]: > 100 µM | TGI [8]: > 100 µM | TGI [9]: > 100 µM | TGI [10]: > 100 µM | TGI [11]: > 100 µM | TGI [12]: > 100 µM | TGI [13]: > 100 µM | TGI [14]: > 100 µM | TGI [15]: > 100 µM | TGI [16]: > 100 µM | TGI [17]: > 100 µM | TGI [18]: > 100 µM | TGI [19]: > 100 µM | TGI [20]: > 100 µM | TGI [21]: > 100 µM | TGI [22]: > 100 µM | TGI [23]: > 100 µM | TGI [24]: > 100 µM | TGI [25]: > 100 µM | TGI [26]: > 100 µM | TGI [27]: > 100 µM | TGI [28]: > 100 µM | TGI [29]: > 100 µM | TGI [30]: > 100 µM | TGI [31]: > 100 µM | TGI [32]: > 100 µM | TGI [33]: > 100 µM | TGI [34]: > 100 µM | TGI [35]: > 100 µM | TGI [36]: > 100 µM | TGI [37]: > 100 µM | TGI [38]: > 100 µM | TGI [39]: > 100 µM | TGI [40]: > 100 µM | TGI [41]: > 100 µM | TGI [42]: > 100 µM | TGI [43]: > 100 µM | TGI [44]: > 100 µM | TGI [45]: > 100 µM | TGI [46]: > 100 µM | TGI [47]: > 100 µM | TGI [48]: > 100 µM | TGI [49]: > 100 µM | TGI [50]: > 100 µM | TGI [51]: > 100 µM | TGI [52]: > 100 µM | TGI [53]: > 100 µM | TGI [54]: > 100 µM | TGI [55]: > 100 µM | TGI [56]: > 100 µM

N#Cc1c(N2CCCC2)nsc1Nc1ccccc1
TGI [2]: > 100 µM | TGI [3]: > 100 µM | TGI [4]: > 100 µM | TGI [5]: > 100 µM | TGI [6]: > 100 µM | TGI [7]: > 100 µM | TGI [8]: > 100 µM | TGI [9]: > 100 µM | TGI [10]: > 100 µM | TGI [11]: > 100 µM | TGI [57]: > 100 µM | TGI [12]: > 100 µM | TGI [13]: > 100 µM | TGI [14]: > 100 µM | TGI [15]: > 100 µM | TGI [16]: > 100 µM | TGI [19]: > 100 µM | TGI [20]: > 100 µM | TGI [58]: > 100 µM | TGI [21]: > 100 µM | TGI [59]: > 100 µM | TGI [22]: > 100 µM | TGI [23]: > 100 µM | TGI [24]: > 100 µM | TGI [25]: > 100 µM | TGI [27]: > 100 µM | TGI [28]: > 100 µM | TGI [29]: > 100 µM | TGI [30]: > 100 µM | TGI [32]: > 100 µM | TGI [33]: > 100 µM | TGI [34]: > 100 µM | TGI [35]: > 100 µM | TGI [36]: > 100 µM | TGI [37]: > 100 µM | TGI [38]: > 100 µM | TGI [39]: > 100 µM | TGI [40]: > 100 µM | TGI [41]: > 100 µM | TGI [44]: > 100 µM | TGI [45]: > 100 µM | TGI [46]: > 100 µM | TGI [47]: > 100 µM | TGI [48]: > 100 µM | TGI [49]: > 100 µM | TGI [51]: > 100 µM | TGI [52]: > 100 µM | TGI [53]: > 100 µM | TGI [54]: > 100 µM

O=NNc1c[nH]c(=O)[nH]c1=O
TGI [1]: > 100 µM | TGI [2]: > 100 µM | TGI [3]: > 100 µM | TGI [4]: > 100 µM | TGI [5]: > 100 µM | TGI [6]: > 100 µM | TGI [8]: > 100 µM | TGI [9]: > 100 µM | TGI [10]: > 100 µM | TGI [11]: > 100 µM | TGI [57]: > 100 µM | TGI [12]: > 100 µM | TGI [13]: > 100 µM | TGI [14]: > 100 µM | TGI [15]: > 100 µM | TGI [16]: > 100 µM | TGI [17]: > 100 µM | TGI [18]: > 100 µM | TGI [19]: > 100 µM | TGI [20]: > 100 µM | TGI [58]: > 100 µM | TGI [21]: > 100 µM | TGI [59]: > 100 µM | TGI [22]: > 100 µM | TGI [23]: > 100 µM | TGI [24]: > 100 µM | TGI [25]: > 100 µM | TGI [26]: > 100 µM | TGI [28]: > 100 µM | TGI [29]: > 100 µM | TGI [30]: > 100 µM | TGI [31]: > 100 µM | TGI [32]: > 100 µM | TGI [33]: > 100 µM | TGI [34]: > 100 µM | TGI [36]: > 100 µM | TGI [37]: > 100 µM | TGI [38]: > 100 µM | TGI [39]: > 100 µM | TGI [40]: > 100 µM | TGI [41]: > 100 µM | TGI [43]: > 100 µM | TGI [44]: > 100 µM | TGI [45]: > 100 µM | TGI [46]: > 100 µM | TGI [49]: > 100 µM | TGI [50]: > 100 µM | TGI [52]: > 100 µM | TGI [53]: > 100 µM | TGI [54]: > 100 µM | TGI [55]: > 100 µM | TGI [56]: > 100 µM

ClC1=C(Cl)C2OC3C=CCC3OC2C(Cl)=C1Cl (stereo not drawn)
TGI [1]: > 100 µM | TGI [2]: > 100 µM | TGI [3]: > 100 µM | TGI [4]: > 100 µM | TGI [5]: > 100 µM | TGI [7]: > 100 µM | TGI [8]: > 100 µM | TGI [9]: > 100 µM | TGI [10]: > 100 µM | TGI [11]: > 100 µM | TGI [12]: > 100 µM | TGI [13]: > 100 µM | TGI [14]: > 100 µM | TGI [15]: > 100 µM | TGI [16]: > 100 µM | TGI [18]: > 100 µM | TGI [20]: 88.4 µM | TGI [58]: > 100 µM | TGI [21]: > 100 µM | TGI [59]: > 100 µM | TGI [22]: > 100 µM | TGI [23]: > 100 µM | TGI [24]: > 100 µM | TGI [25]: 48.1 µM | TGI [26]: > 100 µM | TGI [27]: > 100 µM | TGI [28]: > 100 µM | TGI [29]: > 100 µM | TGI [30]: > 100 µM | TGI [31]: > 100 µM | TGI [32]: > 100 µM | TGI [33]: > 100 µM | TGI [34]: > 100 µM | TGI [35]: > 100 µM | TGI [37]: > 100 µM | TGI [38]: > 100 µM | TGI [39]: > 100 µM | TGI [40]: > 100 µM | TGI [43]: > 100 µM | TGI [44]: > 100 µM | TGI [45]: > 100 µM | TGI [46]: > 100 µM | TGI [47]: 72.1 µM | TGI [48]: > 100 µM | TGI [50]: > 100 µM | TGI [51]: 89.7 µM | TGI [52]: 66.4 µM | TGI [53]: > 100 µM | TGI [54]: > 100 µM | TGI [55]: > 100 µM | TGI [56]: > 100 µM
